Test results from US8436186B2, “Thiazolyl piperidine derivatives” (Merck Patent Gesellschaft mit beschrankter Haftung, priority 2008, dated 2013).

What follows are molecules tested against SphK1 (Homo sapiens, UniProt Q9NYA1) (assay: SphK1 384-well flashplate kinase assay). Details: enzyme assay.
Type: biochemical
Description: The kinase assay is carried out as a 384-well flashplate assay.
5 nM modified SphK1, 800 nM omega-biotinyl-D-erythro-sphingosine and 1 μM ATP (with 0.3 μCi of ^33P-ATP/well) are incubated in a total volume of 50 μl (25 mM HEPES, 5 mM MgCl2, 1 mM dithiothreitol, 0.01% of Brij35, 0.1% of BSA (fatty acid-free), pH 7.4) without or with test substance (5-10 concentrations) at 30° C. for 120 min. The reaction is terminated using 25 μl of 200 mM EDTA solution, filtered off with suction at room temperature after 30 min, and the cavities are washed 3 times with 100 μl of 0.9% NaCl solution. The non-specific proportion of the kinase reaction (blank) is determined using 0.5 mM NaCl. Radioactivity is measured in topcount. IC50 values are calculated using RS1.

Sequence of SphK1 (Q9NYA1 whole entry): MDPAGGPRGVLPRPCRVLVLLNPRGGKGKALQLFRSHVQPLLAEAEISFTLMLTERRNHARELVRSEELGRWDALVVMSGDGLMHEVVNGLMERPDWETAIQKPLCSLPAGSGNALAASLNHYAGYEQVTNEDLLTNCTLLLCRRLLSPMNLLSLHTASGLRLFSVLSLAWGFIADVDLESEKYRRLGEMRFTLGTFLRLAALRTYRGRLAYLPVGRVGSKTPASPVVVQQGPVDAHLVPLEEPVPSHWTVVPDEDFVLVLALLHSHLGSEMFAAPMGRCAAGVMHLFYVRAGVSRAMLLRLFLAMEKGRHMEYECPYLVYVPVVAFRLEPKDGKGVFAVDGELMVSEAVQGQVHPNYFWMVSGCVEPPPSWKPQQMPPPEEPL

Compound	IC50 [µM]
CC(CN1CCOCC1)CN1CCC(c2nc(-c3ccc4c(c3)C(C)(C)CCC4(C)C)cs2)CC1 (stereo not drawn) [Compound A1, 4-(2-methyl-3-{4-[4-(5,5,8,8-tetramethyl-5,6,7,8-tetrahydronaphthalen-2-yl)thiazol-2-yl]piperidin-1-yl}propyl)morpholine]	> 10
CCN1CCCC(N2CCC(c3nc(-c4ccc5c(c4)C(C)(C)CCC5(C)C)cs3)CC2)C1 (stereo not drawn) [Compound A2, 1′-ethyl-4-[4-(5,5,8,8-tetramethyl-5,6,7,8-tetrahydronaphthalen-2-yl)thiazol-2-yl]-[1,3]bipiperidinyl]	1 to 10
NC(=O)CN1CCC(c2nc(-c3ccc4c(c3)CCCC4)cs2)CC1 [Compound A3]	> 10
CN(C)CCN1CCC(c2nc(-c3ccc4c(c3)CCCC4)cs2)CC1 [Compound A6]	> 10
CN1CCCC1CCN1CCC(c2nc(-c3ccc4c(c3)CCCC4)cs2)CC1 (stereo not drawn) [Compound A7]	> 10
OCCN1CCC(c2nc(-c3ccc4c(c3)CCCC4)cs2)CC1 [Compound A11]	1 to 10
OCCCN1CCC(c2nc(-c3ccc4c(c3)CCCC4)cs2)CC1 [Compound A13]	1 to 10
OC[C@@H](O)CN1CCC(c2nc(-c3ccc4c(c3)CCCC4)cs2)CC1 [Compound A14]	1 to 10
OC[C@H](O)CN1CCC(c2nc(-c3ccc4c(c3)CCCC4)cs2)CC1 [Compound A15]	1 to 10
CC1(C)CCC(C)(C)c2cc(-c3csc(C4CCN(CCN5CCCCC5)CC4)n3)ccc21 [Compound A19]	1 to 10
CN1CCCCC1CCN1CCC(c2nc(-c3ccc4c(c3)C(C)(C)CCC4(C)C)cs2)CC1 (stereo not drawn) [Compound A23]	1 to 10
CC1(C)CCC(C)(C)c2cc(-c3csc(C4CCN(CCn5c(=O)[nH]c6ccccc6c5=O)CC4)n3)ccc21 [Compound A24]	1 to 10
CC1(C)CCC(C)(C)c2cc(-c3csc(C4CCN(CCN5CCOCC5)CC4)n3)ccc21 [Compound A25]	1 to 10
CC1(C)CCC(C)(C)c2cc(-c3csc(C4CCN(CC5CNC(=O)O5)CC4)n3)ccc21 (stereo not drawn) [Compound A27]	1 to 10
CC1(C)CCC(C)(C)c2cc(-c3csc(C4CCN(CC(=O)N5CCOCC5)CC4)n3)ccc21 [Compound A31]	1 to 10
COc1ccccc1N1CCN(CCN2CCC(c3nc(-c4ccc5c(c4)C(C)(C)CCC5(C)C)cs3)CC2)CC1 [Compound A35]	> 10
CC(CO)N1CCC(c2nc(-c3ccc4c(c3)C(C)(C)CCC4(C)C)cs2)CC1 (stereo not drawn) [Compound A38]	0.01 to 1
CC(CCO)N1CCC(c2nc(-c3ccc4c(c3)C(C)(C)CCC4(C)C)cs2)CC1 (stereo not drawn) [Compound A40]	0.01 to 1
CC1(C)CCC(C)(C)c2cc(-c3csc(C4CCN(C(=O)NCCc5ccccn5)CC4)n3)ccc21 [Compound A43]	1 to 10
CC1(C)CCC(C)(C)c2cc(-c3csc(C4CCN(C(=O)NCC(N)=O)CC4)n3)ccc21 [Compound A44]	> 10
COCCCOC(=O)N1CCC(c2nc(-c3ccc4c(c3)C(C)(C)CCC4(C)C)cs2)CC1 [Compound A46, 3-methoxypropyl 4-[4-(5,5,8,8-tetramethyl-5,6,7,8-tetrahydronaphthalen-2-yl)thiazol-2-yl]piperidine-1-carboxylate]	1 to 10

Compound	IC50 [µM]
CN(C)CCOCCOC(=O)N1CCC(c2nc(-c3ccc4c(c3)C(C)(C)CCC4(C)C)cs2)CC1 [Compound A47]	1 to 10
CC1(C)CCC(C)(C)c2cc(-c3csc(C4CCN(C(=O)OCCN5CCCC5)CC4)n3)ccc21 [Compound A49]	> 10
CN1CCCC(COC(=O)N2CCC(c3nc(-c4ccc5c(c4)C(C)(C)CCC5(C)C)cs3)CC2)C1 (stereo not drawn) [Compound A50]	> 10
CC1(C)CCC(C)(C)c2cc(-c3csc(C4CCN(C(=O)Cc5ccncc5)CC4)n3)ccc21 [Compound A51, 2-pyridin-4-yl-1-{4-[4-(5,5,8,8-tetramethyl-5,6,7,8-tetrahydronaphthalen-2-yl)thiazol-2-yl]piperidin-1-yl}ethanone]	1 to 10
CC1(C)CCC(C)(C)c2cc(-c3csc(C4CCN(C(=O)c5ccncc5)CC4)n3)ccc21 [Compound A52]	1 to 10
CC(CO)(CO)C(=O)N1CCC(c2nc(-c3ccc4c(c3)C(C)(C)CCC4(C)C)cs2)CC1 [Compound A57]	1 to 10
CC1(C)CCC(C)(C)c2cc(-c3csc(C4CCN(C(=O)[C@@H](N)Cc5cnc[nH]5)CC4)n3)ccc21 [Compound A63, (S)-2-amino-3-(3H-imidazol-4-yl)-1-{4-[4-(5,5,8,8-tetramethyl-5,6,7,8-tetrahydronaphthalen-2-yl)thiazol-2-yl]piperidin-1-yl}-propan-1-one]	1 to 10
CC1(C)CCC(C)(C)c2cc(-c3csc(C4CCN(C(=O)[C@@H](N)CO)CC4)n3)ccc21 [Compound A64]	1 to 10
CC1(C)CCC(C)(C)c2cc(-c3csc(C4CCN(C(=O)C5CNCCO5)CC4)n3)ccc21 (stereo not drawn) [Compound A65]	0.01 to 1
CC1(C)CCC(C)(C)c2cc(-c3csc(C4CCN(C(=O)[C@H](N)CCCCO)CC4)n3)ccc21 [Compound A66]	0.01 to 1
CC1(C)CCC(C)(C)c2cc(-c3csc(C4CCN(C(=O)CCN5CCNCC5)CC4)n3)ccc21 [Compound A67]	> 10
CC1(C)CCC(C)(C)c2cc(-c3csc(C4CCN(C(=O)[C@H]5C[C@H](O)CN5)CC4)n3)ccc21 [Compound A68]	1 to 10
CC1(C)CCC(C)(C)c2cc(-c3csc(C4CCN(C(=O)[C@@H](N)CC(N)=O)CC4)n3)ccc21 [Compound A69]	1 to 10
CC1(C)CCC(C)(C)c2cc(-c3csc(C4CCN(C(=O)[C@H](N)CO)CC4)n3)ccc21 [Compound A70]	1 to 10
Cc1[nH]cnc1CN1CCC(c2nc(-c3ccc4c(c3)C(C)(C)CCC4(C)C)cs2)CC1 [Compound A72]	0.01 to 1
CC1(C)CCC(C)(C)c2cc(-c3csc(C4CCN(Cc5ccncc5)CC4)n3)ccc21 [Compound A74]	1 to 10
CC1(C)CCC(C)(C)c2cc(-c3csc(C4CCN(Cc5c[nH]cn5)CC4)n3)ccc21 [Compound A75]	0.01 to 1
CC1(C)CCC(C)(C)c2cc(-c3csc(C4CCN(Cc5ccccn5)CC4)n3)ccc21 [Compound A77]	1 to 10
COCC(C)NC(=O)N1CCC(c2nc(-c3ccc4c(c3)C(C)(C)CCC4(C)C)cs2)CC1 (stereo not drawn) [Compound A78]	1 to 10
COCCCNC(=O)N1CCC(c2nc(-c3ccc4c(c3)C(C)(C)CCC4(C)C)cs2)CC1 [Compound A79]	1 to 10

Next, values leading:

IC50 [µM]	Compound
1 to 10	CN(C)CCN1CCC(c2nc(-c3ccc4c(c3)C(C)(C)CCC4(C)C)cs2)CC1 [Compound A4]
1 to 10	CN1CCCC1CCN1CCC(c2nc(-c3ccc4c(c3)C(C)(C)CCC4(C)C)cs2)CC1 (stereo not drawn) [Compound A5]
1 to 10	CC1(C)CCC(C)(C)c2cc(-c3csc(C4CCN(CC(N)=O)CC4)n3)ccc21 [Compound A8]
0.01 to 1	CC1(C)CCC(C)(C)c2cc(-c3csc(C4CCN(CCO)CC4)n3)ccc21 [Compound A9]
1 to 10	CC1(C)CCC(C)(C)c2cc(-c3csc(C4CCN(C[C@@H](O)CO)CC4)n3)ccc21 [Compound A12]
1 to 10	CC1(C)CCC(C)(C)c2cc(-c3csc(C4CCN(CCCO)CC4)n3)ccc21 [Compound A16]
0.01 to 1	COCC(O)CN1CCC(c2nc(-c3ccc4c(c3)C(C)(C)CCC4(C)C)cs2)CC1 (stereo not drawn) [Compound A17]
1 to 10	CCN(CC)C(=O)CN1CCC(c2nc(-c3ccc4c(c3)C(C)(C)CCC4(C)C)cs2)CC1 [Compound A18]
0.01 to 1	CC(C)NCC(O)CN1CCC(c2nc(-c3ccc4c(c3)C(C)(C)CCC4(C)C)cs2)CC1 (stereo not drawn) [Compound A20]
1 to 10	CC1(C)CCC(C)(C)c2cc(-c3csc(C4CCN(CCN5CCCC5)CC4)n3)ccc21 [Compound A21]
0.01 to 1	CC1(C)CCC(C)(C)c2cc(-c3csc(C4CCN(C[C@H](O)CO)CC4)n3)ccc21 [Compound A22]
1 to 10	CCN(CC)CCN1CCC(c2nc(-c3ccc4c(c3)C(C)(C)CCC4(C)C)cs2)CC1 [Compound A26]
0.01 to 1	CC1(C)CCC(C)(C)c2cc(-c3csc(C4CCN(CCCN5CCCCC5)CC4)n3)ccc21 [Compound A28]
1 to 10	CC(CN(C)C)N1CCC(c2nc(-c3ccc4c(c3)C(C)(C)CCC4(C)C)cs2)CC1 (stereo not drawn) [Compound A29]
0.01 to 1	CC1(C)CCC(C)(C)c2cc(-c3csc(C4CCN(CCCCN5CCOCC5)CC4)n3)ccc21 [Compound A30]
0.01 to 1	COCCN1CCC(c2nc(-c3ccc4c(c3)C(C)(C)CCC4(C)C)cs2)CC1 [Compound A32]
0.01 to 1	CN1CCC(c2nc(-c3ccc4c(c3)C(C)(C)CCC4(C)C)cs2)CC1 [Compound A33]
0.01 to 1	CCN1CCC(c2nc(-c3ccc4c(c3)C(C)(C)CCC4(C)C)cs2)CC1 [Compound A34]
1 to 10	CCN(CC)CCCN1CCC(c2nc(-c3ccc4c(c3)C(C)(C)CCC4(C)C)cs2)CC1 [Compound A36]
1 to 10	CN(C)CCCNC(=O)N1CCC(c2nc(-c3ccc4c(c3)C(C)(C)CCC4(C)C)cs2)CC1 [Compound A42]
> 10	CCN(CC)CCNC(=O)N1CCC(c2nc(-c3ccc4c(c3)C(C)(C)CCC4(C)C)cs2)CC1 [Compound A45]
> 10	CN(C)CC(=O)N1CCC(c2nc(-c3ccc4c(c3)C(C)(C)CCC4(C)C)cs2)CC1 [Compound A55]
1 to 10	Cn1cnc(CN2CCC(c3nc(-c4ccc5c(c4)C(C)(C)CCC5(C)C)cs3)CC2)c1 [Compound A71]
0.01 to 1	Cn1ccnc1CN1CCC(c2nc(-c3ccc4c(c3)C(C)(C)CCC4(C)C)cs2)CC1 [Compound A73]
> 10	CN(C)CC(C)(C)CN1CCC(c2nc(-c3ccc4c(c3)C(C)(C)CCC4(C)C)cs2)CC1 [Compound A76]
